For one test, the target named is T1, phospho-S338 CRAF (Homo sapiens, UniProt P04049).
T1 construct: phospho-S338 CRAF in orthotopic brain tumor xenografts untreated or treated systemically with KG5; from tissue; host or cells: orthotopic U-87 glioblastoma xenografts in the brain of nude mice
The experiment in a line: Phospho-S338 CRAF staining in orthotopic brain tumor xenografts. The class given is in vivo, mice. The settings on record: systemic KG5 50 mg/Kg, 3 days. The procedure:
FIG. 41. Phospho-5338 CRAF is highly expressed in tumors and can be blocked by an allosteric RAF inhibitor: FIG. 41(a) Immunohistochemical staining of phospho-S338 CRAF in normal human brain and human glioblastoma tissues. Scale bar, 100 μm. FIG. 41(b) Immunohistochemical staining of phospho-S338 CRAF in orthotopic brain tumor xenografts untreated or treated systemically with KG5 (50 mg/Kg) for 3 days. Scale bar, 50 p.m. FIG. 42. Phospho-5338 CRAF promotes mitosis: FIG. 42(a) Quantification of WT and CRAF−/− cells in the G1, S and G2/M phases of the cell cycle. Data are representative of three independent experiments. […] Cells in G2/M were quantified by flow cytometry. […] FIG. 42(d) Cells at pro-metaphase were quantified using confocal microscopy. […] FIG. 42(e) HCT-116 cells were transfected with control or CRAF siRNAs and cells in G2/M were quantified by flow cytometry. […] Lysates of these cells were analyzed for CRAF expression by immunoblotting (inset). […] Quantification of cells in G2/M was performed by flow cytometry. […]
Tumors were generated by injection of RFP-labeled U-87 human glioblastoma cells (10^5 tumorcells in 2 μl of sterile PBS) into the brain of 6-8 week old female nude mice. […] Brains were harvested at day 15 and fluorescence images recorded using the IVIS-200™ imaging system (Xenogen Corp., Hopkinton, Mass.). […]

The test system of a further test is Plk1. The experiment in a line: Plk1 activity in tumor cells arrested in pro-metaphase. In kind it is cell-based, human. Conditions: compared to cells arrested with nocodazole or paclitaxel. The text has this: FIG. 46. CRAF regulates Plk1 activity and localization. FIG. 46(a) Plk1 kinase activity assay performed in WT and CRAF−/− MEFs. Error bars represent s.d. (n=3); * two tailed p value=0.029 using Mann Whitney U test. FIG. 46(b) Immunoblot analysis of XPA-1 cells asynchronous or arrested in mitosis by treatment with KG5, nocodazole or paclitaxel (referred to as Ncdzl and Ptxl respectively). pPlk1 refers to phospho-T210 Plk1 and pHH3 refers to phospho-Histone H3. Data are representative of three independent experiments. FIG. 46(c) Plk1 kinase activity assay performed in HCT-116 cells treated with nocodazole or nocodazole and KG5. Error bars represent s.d. ([…]); * two tailed p value=0.002 using Mann Whitney U test. FIG. 46(d) Immunoblot analysis of CenpF immunoprecipitates from HCT-116 cells untreated or treated with KG5. Data are representative of three independent experiments. FIG. 46(e) Confocal microscopy images of XPA-1 cell at prophase (upper panel), pro-metaphase control untreated (middle panel) or treated with KG5 (lower panel). Cells were stained for phospho-T210 Plk1 (in green), a tubulin (in red) and DNA (TOPRO-3™ in blue). […]
Plk1 enzymatic activity in cell lysates from WT, CRAF−/− MEFs, HCT-116 cells expressing WT or S338D CRAF and HCT-116 cells treated with the allosteric RAF inhibitor KG5 was determined using the Plk1 kinase kit from MBL and following the manufacturer's protocol.

T1 sequence (P04049 whole entry): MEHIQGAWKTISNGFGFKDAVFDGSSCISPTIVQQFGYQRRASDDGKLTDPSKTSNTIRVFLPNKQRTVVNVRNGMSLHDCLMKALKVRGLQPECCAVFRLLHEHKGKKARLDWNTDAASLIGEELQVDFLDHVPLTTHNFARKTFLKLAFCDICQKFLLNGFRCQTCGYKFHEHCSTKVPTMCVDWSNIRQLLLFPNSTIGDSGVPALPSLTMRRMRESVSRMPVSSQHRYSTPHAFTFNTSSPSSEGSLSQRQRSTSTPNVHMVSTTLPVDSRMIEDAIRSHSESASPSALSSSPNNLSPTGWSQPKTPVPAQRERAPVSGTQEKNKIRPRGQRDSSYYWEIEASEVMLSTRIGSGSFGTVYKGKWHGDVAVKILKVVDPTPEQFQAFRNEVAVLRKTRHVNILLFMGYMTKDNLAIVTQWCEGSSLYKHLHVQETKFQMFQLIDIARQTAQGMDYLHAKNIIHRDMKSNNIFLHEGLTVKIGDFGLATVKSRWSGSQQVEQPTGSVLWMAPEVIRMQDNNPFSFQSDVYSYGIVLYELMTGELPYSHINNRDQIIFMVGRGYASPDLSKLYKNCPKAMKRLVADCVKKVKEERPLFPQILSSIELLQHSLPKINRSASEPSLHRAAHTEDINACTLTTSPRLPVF

On to `CSc1nc(N)cc(Oc2ccc(-c3nnc(Nc4cccc(C(F)(F)F)c4)[nH]3)cc2)n1` [KG5], for which, on phospho-S338 CRAF, the “phospho-S338 CRAF in orthotopic brain tumor tissues” value was “qualitative decrease in phospho-5338 RAF”. The Plk1 activity entry in the test with Plk1 is recorded as “decreased Plk1 activity”.

For the origin of these results see US20130266636A1, “METHODS FOR BLOCKING CELL PROLIFERATION AND TREATING DISEASES AND CONDITIONS RESPONSIVE TO CELL GROWTH INHIBITION” (THE REGENTS OF THE UNIVERSITY OF CALIFORNIA, priority 2010, published 2013).
